Experimental data: ChEMBL document CHEMBL1136839, “3,4-Disubstituted isothiazoles: novel potent inhibitors of VEGF receptors 1 and 2” (Bioorg Med Chem Lett, 2009)

Experiments:
[1] = target: T1, Vascular endothelial growth factor receptor 2 (Homo sapiens, UniProt P35968); test: Inhibition of VEGFR2 at IC90 concentration by ATP based competition assay
[2] = target: Serine/threonine-protein kinase PLK1 (Homo sapiens) (UniProt P53350); test: Inhibition of Plk1 at 10 uM by HTRF assay
[3] = target: T1, Vascular endothelial growth factor receptor 2; test: Inhibition of VEGFR2 assessed as blockade of pGAT-biotin phosphorylation in presence of 2 uM ATP by HTRF assay
[4] = target: Vascular endothelial growth factor receptor 1 (Homo sapiens, UniProt P17948); test: Inhibition of VEGFR1 assessed as blockade of pGAT-biotin phosphorylation in presence of 2 uM ATP by HTRF assay
[5] = target: T1, Vascular endothelial growth factor receptor 2; test: Inhibition of VEGFR2 expressed in HEK293 cells assessed as inhibition of receptor phosphorylation by ELISA; format: cell-based
[6] = target: Insulin-like growth factor 1 receptor (Homo sapiens) (UniProt P08069); test: Inhibition of IGF1R at 10 uM by HTRF assay
[7] = target: Insulin receptor (Homo sapiens) (UniProt P06213); test: Inhibition of InR at 10 uM by HTRF assay
[8] = target: Fibroblast growth factor receptor 1 (Homo sapiens) (UniProt P11362); test: Inhibition of FGFR1 at 10 uM by HTRF assay
[9] = target: Receptor-type tyrosine-protein kinase FLT3 (Homo sapiens) (UniProt P36888); test: Inhibition of Flt3 at 10 uM by HTRF assay
[10] = target: Epidermal growth factor receptor (Homo sapiens) (UniProt P00533); test: Inhibition of EGFR at 10 uM by HTRF assay
[11] = target: Receptor tyrosine-protein kinase erbB-2 (Homo sapiens) (UniProt P04626); test: Inhibition of ErbB2 at 10 uM by HTRF assay
[12] = target: Hepatocyte growth factor receptor (Homo sapiens) (UniProt P08581); test: Inhibition of cMET at 10 uM by HTRF assay
[13] = target: Macrophage-stimulating protein receptor (Homo sapiens) (UniProt Q04912); test: Inhibition of Ron at 10 uM by HTRF assay
[14] = Inhibition of PKA at 10 uM by HTRF assay
[15] = target: Glycogen synthase kinase-3 beta (Homo sapiens) (UniProt P49841); test: Inhibition of GSK3-beta at 10 uM by HTRF assay
[16] = target: Bcr/Abl fusion protein (Homo sapiens) (UniProt P00519+P11274); test: Inhibition of bcr-Abl at 10 uM by HTRF assay; format: protein assay
[17] = target: Cyclin-dependent kinase 1 (Homo sapiens) (UniProt P06493); test: Inhibition of CDK1 at 10 uM by HTRF assay
[18] = target: Cyclin-dependent kinase 2 (Homo sapiens) (UniProt P24941); test: Inhibition of CDK2 at 10 uM by HTRF assay
[19] = target: Proto-oncogene tyrosine-protein kinase Src (Homo sapiens) (UniProt P12931); test: Inhibition of Src at 10 uM by HTRF assay
[20] = target: T2, Aurora kinase A (Homo sapiens) (UniProt O14965); test: Inhibition of Aurora A at 10 uM by HTRF assay
T2 sequence (whole entry): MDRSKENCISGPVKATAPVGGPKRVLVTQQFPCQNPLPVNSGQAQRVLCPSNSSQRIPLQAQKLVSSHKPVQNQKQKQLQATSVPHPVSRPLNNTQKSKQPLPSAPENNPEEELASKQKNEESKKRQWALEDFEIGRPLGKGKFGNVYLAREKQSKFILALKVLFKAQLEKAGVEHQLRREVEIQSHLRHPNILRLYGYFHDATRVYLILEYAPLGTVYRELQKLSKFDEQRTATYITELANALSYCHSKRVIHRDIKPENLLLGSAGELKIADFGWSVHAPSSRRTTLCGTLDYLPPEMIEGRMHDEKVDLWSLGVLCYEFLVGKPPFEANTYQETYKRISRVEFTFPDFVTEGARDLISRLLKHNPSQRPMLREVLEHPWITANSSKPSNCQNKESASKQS

[21] = target: Aurora kinase B (Homo sapiens) (UniProt Q96GD4); test: Inhibition of Aurora B at 10 uM by HTRF assay
[22] = Inhibition of Bcr-Abl T315 mutant at 10 uM by HTRF assay
[23] = Intrinsic permeability across human Caco-2 cells
[24] = target: T1, Vascular endothelial growth factor receptor 2; test: Inhibition of VEGFR2 at IC50 concentration by ATP based competition assay

T1 sequence (P35968 whole entry): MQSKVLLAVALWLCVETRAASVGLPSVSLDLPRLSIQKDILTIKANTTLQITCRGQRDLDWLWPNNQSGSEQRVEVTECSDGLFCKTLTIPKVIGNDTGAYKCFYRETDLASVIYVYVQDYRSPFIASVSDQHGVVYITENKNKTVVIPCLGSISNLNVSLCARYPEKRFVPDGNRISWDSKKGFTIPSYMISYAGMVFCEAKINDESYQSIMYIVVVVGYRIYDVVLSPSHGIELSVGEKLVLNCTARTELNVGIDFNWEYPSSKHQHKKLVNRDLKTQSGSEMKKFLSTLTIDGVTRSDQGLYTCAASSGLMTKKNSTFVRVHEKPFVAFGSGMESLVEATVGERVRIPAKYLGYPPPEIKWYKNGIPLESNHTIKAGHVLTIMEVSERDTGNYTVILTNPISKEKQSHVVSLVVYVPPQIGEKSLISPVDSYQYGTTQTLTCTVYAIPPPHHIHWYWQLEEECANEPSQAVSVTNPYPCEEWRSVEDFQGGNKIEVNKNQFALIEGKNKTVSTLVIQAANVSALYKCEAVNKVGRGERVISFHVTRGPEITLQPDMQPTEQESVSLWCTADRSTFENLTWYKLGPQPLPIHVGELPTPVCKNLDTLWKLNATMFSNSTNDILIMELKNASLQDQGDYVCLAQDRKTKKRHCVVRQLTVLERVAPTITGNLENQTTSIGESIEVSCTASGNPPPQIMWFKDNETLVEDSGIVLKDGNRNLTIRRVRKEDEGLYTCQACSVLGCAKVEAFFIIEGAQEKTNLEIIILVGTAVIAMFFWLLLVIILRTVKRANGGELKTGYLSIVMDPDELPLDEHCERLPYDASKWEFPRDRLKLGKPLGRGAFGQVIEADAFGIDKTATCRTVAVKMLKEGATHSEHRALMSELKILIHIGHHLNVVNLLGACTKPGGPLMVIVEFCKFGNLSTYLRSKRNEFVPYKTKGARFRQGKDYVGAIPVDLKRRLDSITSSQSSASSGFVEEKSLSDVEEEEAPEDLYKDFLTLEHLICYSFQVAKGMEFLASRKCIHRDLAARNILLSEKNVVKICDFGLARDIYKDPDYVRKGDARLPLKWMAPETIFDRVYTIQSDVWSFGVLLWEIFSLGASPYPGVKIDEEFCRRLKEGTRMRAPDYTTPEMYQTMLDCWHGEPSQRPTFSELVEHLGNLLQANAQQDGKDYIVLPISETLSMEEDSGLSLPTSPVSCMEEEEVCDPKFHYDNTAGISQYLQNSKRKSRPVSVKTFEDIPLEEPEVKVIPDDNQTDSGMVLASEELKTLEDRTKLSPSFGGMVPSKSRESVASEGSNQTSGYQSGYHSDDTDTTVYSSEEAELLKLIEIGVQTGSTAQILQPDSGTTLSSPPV
Serine/threonine-protein kinase PLK1 (Homo sapiens), sequence (P53350 whole entry): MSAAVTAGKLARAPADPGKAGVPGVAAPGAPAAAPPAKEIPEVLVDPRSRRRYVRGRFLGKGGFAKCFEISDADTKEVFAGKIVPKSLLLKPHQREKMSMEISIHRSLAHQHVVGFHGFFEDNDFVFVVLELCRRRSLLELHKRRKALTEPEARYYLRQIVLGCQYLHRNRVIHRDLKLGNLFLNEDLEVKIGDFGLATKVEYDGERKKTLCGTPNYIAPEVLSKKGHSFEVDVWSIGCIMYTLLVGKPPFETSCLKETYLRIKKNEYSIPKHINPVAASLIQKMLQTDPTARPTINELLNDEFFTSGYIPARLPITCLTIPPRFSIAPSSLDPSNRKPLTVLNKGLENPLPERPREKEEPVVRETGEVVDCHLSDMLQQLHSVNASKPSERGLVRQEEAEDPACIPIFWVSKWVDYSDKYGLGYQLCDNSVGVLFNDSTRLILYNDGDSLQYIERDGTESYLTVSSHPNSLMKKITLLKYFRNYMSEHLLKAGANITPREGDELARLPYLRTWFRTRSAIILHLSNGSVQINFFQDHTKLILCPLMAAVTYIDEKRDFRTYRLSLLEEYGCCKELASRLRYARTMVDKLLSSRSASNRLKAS
Insulin receptor (Homo sapiens), sequence (P06213 28-758 limits assumed): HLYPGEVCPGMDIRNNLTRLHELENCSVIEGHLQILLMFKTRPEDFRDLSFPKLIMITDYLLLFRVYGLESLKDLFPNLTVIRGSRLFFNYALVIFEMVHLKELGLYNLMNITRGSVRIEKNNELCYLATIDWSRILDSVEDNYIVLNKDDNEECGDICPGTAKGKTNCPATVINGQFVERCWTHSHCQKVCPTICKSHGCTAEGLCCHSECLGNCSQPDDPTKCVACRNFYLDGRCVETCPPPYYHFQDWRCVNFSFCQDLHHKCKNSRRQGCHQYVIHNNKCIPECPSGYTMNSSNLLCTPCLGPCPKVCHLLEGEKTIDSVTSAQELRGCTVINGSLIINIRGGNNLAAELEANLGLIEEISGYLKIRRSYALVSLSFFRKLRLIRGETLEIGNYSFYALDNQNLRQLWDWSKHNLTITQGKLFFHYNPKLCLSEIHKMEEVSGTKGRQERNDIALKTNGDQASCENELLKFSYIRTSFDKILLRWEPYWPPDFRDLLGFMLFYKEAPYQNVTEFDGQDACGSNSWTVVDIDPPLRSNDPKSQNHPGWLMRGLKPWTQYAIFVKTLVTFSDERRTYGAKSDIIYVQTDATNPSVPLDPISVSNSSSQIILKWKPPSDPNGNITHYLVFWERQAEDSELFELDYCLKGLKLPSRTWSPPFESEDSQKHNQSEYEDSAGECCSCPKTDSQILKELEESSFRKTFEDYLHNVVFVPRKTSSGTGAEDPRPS
Insulin receptor (Homo sapiens), sequence (P06213 763-1382 limits assumed): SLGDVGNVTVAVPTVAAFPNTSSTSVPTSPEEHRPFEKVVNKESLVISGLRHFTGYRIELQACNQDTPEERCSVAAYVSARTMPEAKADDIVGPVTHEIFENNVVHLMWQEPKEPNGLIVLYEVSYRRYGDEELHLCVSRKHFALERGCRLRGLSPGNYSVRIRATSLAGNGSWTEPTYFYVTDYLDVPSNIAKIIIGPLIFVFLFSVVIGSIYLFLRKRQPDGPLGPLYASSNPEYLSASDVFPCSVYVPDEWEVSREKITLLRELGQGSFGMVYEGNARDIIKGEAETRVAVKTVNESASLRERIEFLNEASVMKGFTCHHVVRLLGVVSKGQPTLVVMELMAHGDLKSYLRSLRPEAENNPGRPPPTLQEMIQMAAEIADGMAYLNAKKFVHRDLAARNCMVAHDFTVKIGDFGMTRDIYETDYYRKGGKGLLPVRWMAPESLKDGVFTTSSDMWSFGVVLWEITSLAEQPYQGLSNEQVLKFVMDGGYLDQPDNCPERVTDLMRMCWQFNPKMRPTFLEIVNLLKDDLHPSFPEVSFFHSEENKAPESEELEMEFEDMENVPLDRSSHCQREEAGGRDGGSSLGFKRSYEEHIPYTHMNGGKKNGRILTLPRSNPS
Aurora kinase B (Homo sapiens), sequence (Q96GD4 whole entry): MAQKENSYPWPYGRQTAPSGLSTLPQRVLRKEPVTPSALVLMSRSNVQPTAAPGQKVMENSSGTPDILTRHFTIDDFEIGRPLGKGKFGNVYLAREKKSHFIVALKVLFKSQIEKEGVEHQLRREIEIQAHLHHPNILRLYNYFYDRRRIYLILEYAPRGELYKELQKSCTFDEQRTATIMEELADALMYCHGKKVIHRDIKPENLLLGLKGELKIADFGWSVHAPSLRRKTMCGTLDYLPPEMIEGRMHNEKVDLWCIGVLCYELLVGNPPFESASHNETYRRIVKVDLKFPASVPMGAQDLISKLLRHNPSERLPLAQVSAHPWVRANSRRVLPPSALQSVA
Proto-oncogene tyrosine-protein kinase Src (Homo sapiens), sequence (P12931 2-536 limits assumed): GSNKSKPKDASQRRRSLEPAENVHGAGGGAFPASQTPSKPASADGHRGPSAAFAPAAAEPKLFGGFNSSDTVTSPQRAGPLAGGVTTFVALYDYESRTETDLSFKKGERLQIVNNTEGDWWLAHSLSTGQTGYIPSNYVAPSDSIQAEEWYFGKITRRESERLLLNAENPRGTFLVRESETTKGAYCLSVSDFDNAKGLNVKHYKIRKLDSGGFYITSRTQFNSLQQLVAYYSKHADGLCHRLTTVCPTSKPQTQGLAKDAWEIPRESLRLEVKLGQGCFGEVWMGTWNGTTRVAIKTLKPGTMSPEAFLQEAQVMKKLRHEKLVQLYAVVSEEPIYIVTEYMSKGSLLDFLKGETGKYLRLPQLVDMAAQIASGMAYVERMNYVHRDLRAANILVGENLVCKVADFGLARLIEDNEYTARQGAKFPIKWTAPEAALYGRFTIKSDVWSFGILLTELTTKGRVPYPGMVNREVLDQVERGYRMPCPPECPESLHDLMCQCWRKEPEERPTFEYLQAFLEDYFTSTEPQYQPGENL
Cyclin-dependent kinase 1 (Homo sapiens), sequence (P06493 whole entry, looked up): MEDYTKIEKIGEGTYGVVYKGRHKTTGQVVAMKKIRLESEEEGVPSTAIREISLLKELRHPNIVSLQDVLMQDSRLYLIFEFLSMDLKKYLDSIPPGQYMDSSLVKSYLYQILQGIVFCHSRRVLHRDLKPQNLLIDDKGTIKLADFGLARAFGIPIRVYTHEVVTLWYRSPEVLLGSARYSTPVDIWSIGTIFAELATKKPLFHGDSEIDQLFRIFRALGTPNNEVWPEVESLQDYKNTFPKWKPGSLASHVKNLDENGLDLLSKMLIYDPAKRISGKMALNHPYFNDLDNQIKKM
Glycogen synthase kinase-3 beta (Homo sapiens), sequence (P49841 whole entry, looked up, the tested form may be a part): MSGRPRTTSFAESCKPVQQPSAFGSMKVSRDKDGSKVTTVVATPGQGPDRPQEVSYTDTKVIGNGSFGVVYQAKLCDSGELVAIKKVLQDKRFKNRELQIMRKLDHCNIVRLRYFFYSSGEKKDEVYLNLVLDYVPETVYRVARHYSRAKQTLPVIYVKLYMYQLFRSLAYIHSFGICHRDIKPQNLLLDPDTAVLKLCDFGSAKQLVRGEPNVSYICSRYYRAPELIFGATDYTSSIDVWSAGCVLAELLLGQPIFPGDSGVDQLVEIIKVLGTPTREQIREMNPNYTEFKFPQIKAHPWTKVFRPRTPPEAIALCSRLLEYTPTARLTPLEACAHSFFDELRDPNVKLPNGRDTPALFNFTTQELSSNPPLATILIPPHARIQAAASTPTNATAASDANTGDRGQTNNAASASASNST

inhibition [2] | IC50 [3] | IC50 [4] | IC50 [5] | inhibition [6] | inhibition [7] | inhibition [8] | inhibition [9] | inhibition [10] | inhibition [11] | inhibition [12] | inhibition [13] | inhibition [14] | inhibition [15] | inhibition [16] | inhibition [17] | inhibition [18] | inhibition [19] | inhibition [20] | inhibition [21] | Structure (SMILES) | also measured
< 30% | 0.041 µM | 0.17 µM | 0.054 µM | < 30% | < 30% | < 30% | < 30% | < 30% | < 30% | < 30% | < 30% | < 30% | < 30% | < 30% | < 30% | < 30% | < 30% | < 30% | < 30% | O=C(Nc1cccc(C(F)(F)F)c1)c1nscc1NCc1ccncc1 | Ki [1]: 0.13 µM; inhibition [22]: < 30%; Papp [23]: 6.98 ×10⁻⁶ cm/s; Ki [24]: 0.16 µM
< 30% | 0.23 µM | 0.26 µM | 1.04 µM | < 30% | < 30% | < 30% | < 30% | < 30% | < 30% | < 30% | < 30% | < 30% | < 30% | < 30% | < 30% | < 30% | < 30% | < 30% | < 30% | O=C(Nc1ccc(Br)cc1)c1nscc1NCc1ccncc1 | Ki [1]: 0.07 µM; inhibition [22]: < 30%; Ki [24]: 0.09 µM
< 30% | 0.033 µM | 0.26 µM | 0.041 µM | < 30% | < 30% | < 30% | < 30% | < 30% | < 30% | < 30% | < 30% | < 30% | < 30% | < 30% | < 30% | < 30% | < 30% | < 30% | < 30% | O=C(Nc1cccc(OC(F)(F)F)c1)c1nscc1NCc1ccncc1 | inhibition [22]: < 30%; Papp [23]: 7.93 ×10⁻⁶ cm/s
